{"source": "patent US20090131537A1", "about": "“Wound healing compositions” (priority 2007, published 2009)", "key": {"HaCat keratinocytes [1]": {"system": "HaCat keratinocytes", "experiment": "wound healing zone (WHZ) wound gap closure in confluent HaCat keratinocyte sheets", "format": "cell-based, human", "conditions": "for healing of WHZ: 24 hours, with insulin", "experimental": "Keratinocytes were grown in a serum free medium supplemented with 5 ng/ml EGF and 5 ug/ml insulin and 0.2% fetal bovine serum and reseeded at 1×10^5 cells per cm^2 in to 35 mm 2 circular disposable Petri dishes and incubated at 37° C. until the cells completely filled the dish. These confluent cultures were then washed with ice-cold basal MCDB serum free medium and refed a serum free medium of the present invention whose composition is as shown in Table 1. A 2.5 mm linear wound was made across the midline of the diameter of the confluent culture with a 2.5 mm diameter heat-sealed tip of a 9 inch sterile Pasteur pipette. […] Wound of this diameter were routinely and reproducibly made by this technique and allow study of the effect of any agent that might have an effect on wound healing by measuring the delay in time it takes to fill in the wound gap of the WHZ.\nFIG. 6 is a photograph of 9 culture dishes fixed with 50% ethanol and stained with 0.2% crystal violet 24 hours after forming the WHZ and incubated in the serum free medium of this invention containing varying doses of retinyl acetate. The experiment was performed in duplicate dishes. There is only one dish labeled 3E-5 as its duplicate was contaminated with mold and was eliminated. Control dishes were refed serum free medium supplemented with insulin but no retinyl acetate. All of the other dishes were r3efed serum free medium with insulin and increasing amount of retinyl acetate. The mi9d line WHZ was filled by epidermal keratinocyte migration and cell growth in all of the dishes except for cultures that had retinyl acetate at concentrations greater than 3×10^−6 M.\nFIG. 7 show photomicrographs comparing wound closure in the WHZ for cultures of HaCat keratinocytes fixed and stained with crystal violet stain and photographed with bright field illumination."}, "HaCat keratinocytes [2]": {"system": "HaCat keratinocytes", "experiment": "clonal growth assay of HaCat keratinocytes with growth factor/retinoid supplements", "format": "cell-based, human", "conditions": "for keratinocyte clonal growth: FIG. 1", "experimental": "In the following experiment, the effect of on keratinocyte growth of adding single or multiple additives to standard medium (Std) was examined in a clonal growth assay performed according to the methods described previously (Wille et al., 1984). Briefly, a sterile […] plastic disposable Petri dish is seed with 5,000 high cloning HaCat cells, and refed complete (E^+I^+) serum free HECK 109 medium at incubated at 37° C. for 24 to 48 hours. The cells are washed with ice-cold Standard HECK 109 medium and refed various combinations of growth factors and retinyl acetate (RetAC).\nFIG. 1 presents a photograph showing the results of incubating the HaCat seeded clonal assay dishes various supplements. The cells were fixed with 50% ethanol and stained with 0.2% crystal violet stain. This imparts a blue color to the cells. The stained dishes were then photographed.\nIn a second series of experiments the HaCat keratinocyte clonal growth after one day (D1) was compared for the combination: insulin plus retinyl acetate (Ins+Rac, D1) and the combination: EGF plus insulin (EI, D1). […] In these studies, insulin was also a necessary growth factor when used in combination with retinyl acetate. This may reflect the often-observed phenomenon of “carry-over” of bound EGF on cell surface growth factor receptor."}, "HaCat keratinocytes [3]": {"system": "HaCat keratinocytes", "experiment": "inhibition of retinoid-induced autocrine growth of HaCat keratinocytes by receptor tyrosine kinase inhibitor", "format": "cell-based, human", "conditions": "standard medium + 5 ug/ml insulin + 3×10^−8 M retinyl acetate, d1, FIG. 5", "experimental": "In this experiment a selective inhibitor of receptor tyrosine protein phosphokinase was added to a culture of HaCat keratinocytes immediately prior to replacing the growth factor replete medium with HECK 110 serum free medium containing the combination insulin and retinyl acetate to induce autocrine growth. FIG. 5 presents a photograph showing three culture dishes with the following growth conditions: A. Standard growth medium (Std, d1); B. Standard growth medium containing the combination: 5 ug/ml insulin plus 3×10^−8M retinyl acetate (Ins+RAc, d1) and C. standard medium containing the combination: 5 ug/ml insulin, 3×10^−8M retinyl acetate and 2 uM of receptor tyrosine protein kinase inhibitor (Ins+Rac+RTKI, d1)."}, "[4]": {"system": "adult human keratinocytes", "conditions": "cited from earlier work"}, "[5]": {"system": "normal human keratinocytes", "conditions": "added to serum free growth factor supplemented medium; cited from earlier work"}, "c-neu": {"system": "c-neu", "experiment": "indirect immunofluorescence c-neu staining of keratinocytes propagated with retinoic acid", "format": "cell-based, human", "conditions": "5×10^−8 M all-trans retinoic acid", "source_text": "In order to determine whether retinoids like retinyl acetate induced autocrine secretion of an EGF-like protein growth factor that binds to an EGF-like cell surface receptor, we designed an experiment using the erbB antibody purchased from Oncogene Sciences (Manhasset, N.Y.) and performed indirect immunofluoresnce (IIF) cytochemistry on fixed normal human neonatal foreskin keratinocytes prepared according to previous studies (Wille et al., 1984). The technique of indirect immunofluorescene was performed according to the antibody manufacturers instructions for c-neu antibody. The neu oncogene was discovered after serial transformation of cells using rat neuroblastoma DNA. The isolated oncogene hybridizes with v-erbB and has 50% homology to the normal EGF receptor, a tyrosine kinase type enzyme protein. The proto-oncogene for neu is designated c-erb-2.\nNormal human keratinocytes were propagated in a serum free medium composition containing 5×10.up.−8M all-trans retinoic acid, fixed and prepared for c-neu staining and detection by IIF as described in Experiment 1. […] We interpret this to mean that retinoid stimulation of autocrine growth proceeds through phosphorylation of an EGF-like receptor at points of cell-to-cell contact, which usually is only seen is post-mitotic suprabasal cells."}}, "note": "“Also recorded” adds a separate entry of the source. Where two headings read alike, the source gives them in different places."}
{"compound": "CC(=O)OC/C=C(C)/C=C/C=C(C)/C=C/C1=C(C)CCCC1(C)C", "note": "(racemic) [retinyl acetate]", "values": [{"measurement": "healing of WHZ", "setting": "HaCat keratinocytes [1]; 3×10^−5 M retinyl acetate", "value": "incomplete healing; also recorded: no healing; also recorded: complete failure to fill in the WHZ gap"}, {"measurement": "healing of WHZ", "setting": "HaCat keratinocytes [1]; 3×10^−6 M retinyl acetate", "value": "incomplete healing"}, {"measurement": "healing in the WHZ", "setting": "HaCat keratinocytes [1]; 3×10^−7 M retinyl acetate", "value": "~100", "unit": "%"}, {"measurement": "healing of WHZ", "setting": "HaCat keratinocytes [1]; 3×10^−7 M retinyl acetate", "value": "complete wound healing"}, {"measurement": "healing of WHZ", "setting": "HaCat keratinocytes [1]; 3×10^−8 M retinyl acetate", "value": "complete healing"}, {"measurement": "keratinocyte clonal growth after one day (D1) compared with EGF plus insulin", "setting": "HaCat keratinocytes [2]; 5 ug/ml insulin + 3×10^−8 M retinyl acetate, D1, FIG. 2", "value": "stimulated keratinocyte growth as well as the combination (EI)"}, {"measurement": "keratinocyte clonal growth", "setting": "HaCat keratinocytes [2]; standard medium (Std) + 3×10^−8 M retinyl acetate alone", "value": "little if any keratinocyte growth"}, {"measurement": "keratinocyte clonal growth", "setting": "HaCat keratinocytes [2]; standard medium + 5 ug/ml insulin and 3×10^−8 M retinyl acetate", "value": "sufficient to support the growth; also recorded: the best result was stimulation of keratinocyte growth"}, {"measurement": "HaCat growth, dish B versus dishes A and C", "setting": "HaCat keratinocytes [3]", "value": "significant growth"}]}
{"compound": "CC1=C(/C=C/C(C)=C/C=C/C(C)=C/C(=O)O)C(C)(C)CCC1", "note": "[all-trans retinoic acid]", "values": [{"measurement": "effect on keratinocyte growth", "setting": "[4]; concentrations lower than the optimal 0.5 ng/ml", "value": "ineffective"}, {"measurement": "effect on keratinocyte growth", "setting": "[4]; growth factor deficient medium, growth arrested cells, 0.1-2.5 ng/ml", "value": "stimulated growth"}, {"measurement": "optimal concentration required to produce the growth stimulation", "setting": "[4]; growth factor deficient medium", "value": 0.5, "unit": "ng/mL"}, {"measurement": "effect on keratinocyte proliferation", "setting": "[4]; growth factor-supplemented medium, 0.1-2.5 ng/ml", "value": "inhibited proliferation"}, {"measurement": "rate of keratinocyte proliferation relative to maximal rate in growth factor supplemented medium", "setting": "[4]; retinoid-stimulated cultures, growth factor deficient medium", "value": "approximately 35%"}, {"measurement": "effect on clonal growth", "setting": "[5]", "value": "inhibits the clonal growth"}, {"measurement": "c-neu staining pattern", "setting": "c-neu; no alkaline phosphatase pre-treatment, FIG. 4A", "value": "virtually all of the positive staining was strictly localized to focal adherence areas"}, {"measurement": "c-neu phosphorylation", "setting": "c-neu; with alkaline phosphatase pretreatment, FIG. 4B", "value": "induced a labile phosphorylation of c-neu only at the focal adherence sites"}]}
{"compound": "insulin: protein growth factor insulin, supplement of serum free medium", "values": [{"measurement": "keratinocyte clonal growth", "setting": "HaCat keratinocytes [2]; standard medium + insulin 5 ug/ml only (Std+Ins)", "value": "less effective; also recorded: stimulated to grow"}]}
